ChEMBL document CHEMBL1201862, “PubChem BioAssay data set” (2004)
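Grown in 96-well plates, cells were treated for 48 hours with each compound at five concentrations. Insufficient inhibition: endpoint recorded as highest concentration tested. The concentration for 50% growth inhibition is given as GI50.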 Active and inactive are the calls of the source. Rule as the data show it: active = GI50 up to about 1.1 µM and inactive = higher.

Columns and labels:
Experiment in all cases: DTP human tumour cell line panel, 48 h
[1] = test system: ACHN
[2] = test system: EKVX
[3] = test system: HOP-62
[4] = test system: IGROV-1
[5] = test system: K562
[6] = test system: MDA-N
[7] = test system: NCI-H226
[8] = test system: NCI-H23
[9] = test system: OVCAR-3
[10] = test system: OVCAR-4
[11] = test system: RPMI-8226
[12] = test system: RXF 393
[13] = test system: SF-268
[14] = test system: SK-MEL-2
[15] = test system: SK-OV-3
[16] = test system: SR
[17] = test system: U-251
[18] = test system: UACC-257
[19] = test system: UO-31

Measured: GI50

Cc1ccc(-c2c3nc(c(-c4ccc(C)cc4)c4ccc([nH]4)c(-c4ccc(OCC5COC(C)(C)O5)cc4)c4nc(c(-c5ccc(C)cc5)c5ccc2[nH]5)C=C4)C=C3)cc1 (stereo unspecified)
inactive: [1] > 31.6 µM | [2] 13.5 µM | [3] > 31.6 µM | [4] > 31.6 µM | [5] > 10 µM | [6] > 31.6 µM | [7] > 31.6 µM | [8] > 31.6 µM | [9] > 31.6 µM | [10] > 31.6 µM | [11] > 100 µM | [12] > 10 µM | [13] > 31.6 µM | [14] > 31.6 µM | [15] > 10 µM | [16] > 31.6 µM | [17] > 31.6 µM | [18] > 31.6 µM | [19] > 31.6 µM

COC(=O)C1=C(OC(=O)/C(=C/c2ccccc2)c2ccc(OC)cc2)C(C(=O)OC)[C@@]2(O)[C@@H](C(=O)OC)[C@H](C)C[C@@H]1[C@@H]2C(=O)OC (stereo partly specified)
inactive: [1] > 100 µM | [2] > 100 µM | [3] > 100 µM | [4] 55.7 µM | [5] > 100 µM | [6] > 100 µM | [7] > 100 µM | [8] 50.1 µM | [9] > 100 µM | [10] > 100 µM | [11] > 100 µM | [12] 17.8 µM | [13] > 100 µM | [14] > 100 µM | [15] 80.4 µM | [16] > 100 µM | [17] 63.2 µM | [18] > 100 µM | [19] > 100 µM

Cc1nc2c(O)cccc2c(=O)[nH]1
inactive: [1] 348 µM | [2] 456 µM | [3] 437 µM | [4] 405 µM | [5] 359 µM | [6] 504 µM | [7] 203 µM | [8] 303 µM | [9] 542 µM | [10] 399 µM | [11] 135 µM | [12] 158 µM | [13] 467 µM | [14] > 1000 µM | [15] 348 µM | [16] 114 µM | [17] 670 µM | [18] 555 µM | [19] 282 µM

NCCC1([N+](=O)[O-])CCNCC1
inactive: [1] > 100 µM | [2] > 100 µM | [3] > 100 µM | [4] > 100 µM | [5] > 100 µM | [6] > 100 µM | [7] > 100 µM | [8] > 100 µM | [9] > 100 µM | [10] > 100 µM | [11] > 100 µM | [12] > 100 µM | [13] > 100 µM | [14] > 100 µM | [15] > 100 µM | [16] > 100 µM | [17] > 100 µM | [18] > 100 µM | [19] > 100 µM
